Measurements as given in PubChem BioAssay (NCI).
“And” between values parts separate entries of the source, which are not always exact repeats. Equal entries are not always repeated.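 How tested: cells in 96-well plates exposed to compound for 48 hours at five concentrations. GI50 = concentration required for 50% inhibition of growth. TGI marks complete inhibition of growth.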

Assays:
Assay in all cases: NCI anticancer screen, dose series, 48 h
ACHN renal = system: ACHN renal
HCT-15 colon = system: HCT-15 colon
IGROV1 ovarian = system: IGROV1 ovarian
KM12 colon = system: KM12 colon
LOX IMVI melanoma = system: LOX IMVI melanoma
OVCAR-5 ovarian = system: OVCAR-5 ovarian
OVCAR-8 ovarian = system: OVCAR-8 ovarian
PC-3 prostate = system: PC-3 prostate
T-47D breast = system: T-47D breast
OVCAR-4 ovarian = system: OVCAR-4 ovarian

| SMILES | TGI (ACHN renal) | TGI (HCT-15 colon) [µM] | TGI (IGROV1 ovarian) | TGI (KM12 colon) | TGI (LOX IMVI melanoma) | TGI (OVCAR-5 ovarian) | TGI (OVCAR-8 ovarian) [µM] | TGI (PC-3 prostate) | TGI (T-47D breast) [µM] | TGI (OVCAR-4 ovarian) [µM] | GI50 (ACHN renal) [µM] | GI50 (HCT-15 colon) [µM] | GI50 (IGROV1 ovarian) [µM] | GI50 (KM12 colon) [µM] | GI50 (LOX IMVI melanoma) [µM] | GI50 (OVCAR-5 ovarian) [µM] | GI50 (OVCAR-8 ovarian) [µM] | GI50 (PC-3 prostate) [µM] | GI50 (T-47D breast) [µM] |
| --- | --- | --- | --- | --- | --- | --- | --- | --- | --- | --- | --- | --- | --- | --- | --- | --- | --- | --- | --- |
| O=C1Cc2c([nH]c3c(Br)cccc23)-c2ccccc2N1 | > 100 µM | > 100 | > 100 µM | > 100 µM | > 100 µM | > 100 µM | > 100 | > 100 µM | > 100 | – | – | – | – | – | – | – | – | – | – |
| COc1ccc(Sc2ccccc2[N+](=O)[O-])cc1 | – | > 100 | > 100 µM | > 100 µM | > 100 µM | > 100 µM | > 100 | – | – | > 100 | – | – | – | – | – | – | – | – | – |
| FC(F)(Sc1nc2ccccc2[nH]1)c1nc2ccccc2o1 | > 100 µM | > 100 | > 100 µM | > 100 µM | – | > 100 µM | > 100 | > 100 µM | > 100 | > 100 | – | – | – | – | – | – | – | – | – |
| COc1ccc2c(C=O)c3n(c(=O)c2c1OC)CCc1cc2c(cc1-3)OCO2 | > 100 µM | > 100 | > 100 µM | > 100 µM | – | > 100 µM | > 100 | > 100 µM | > 100 | > 100 | – | – | – | – | – | – | – | – | – |
| Cc1cc(N(CCCl)CCCl)ccc1/C=N\NC(=O)c1cccnc1 | > 100 µM | > 100 | > 100 µM | > 100 µM | 99.4 µM | 60 µM | > 100 | > 100 µM | 50.2 | – | 10.7 | 21.9 | 35.9 | 34.4 | 15.6 | 12 | 25.9 | 22.7 | 6.41 |
| N=c1sc(N2CCOCC2)nn1CC(=O)c1ccccc1 | > 100 µM | > 100 | > 100 µM | > 100 µM | – | > 100 µM | > 100 | > 100 µM | > 100 | > 100 | – | – | – | – | – | – | – | – | – |
| CCN(CC)CCCNc1nnc(C)c2[nH]c3ccccc3c12 | 59.9 µM | > 100 | 44.3 µM | > 100 µM | 30.9 µM | 61.3 µM | 42.3 | 45.2 µM | 68.9 | – | – | – | – | – | – | – | – | – | – |
| CCCCN1/C(=N/Nc2n[nH]c(=O)c3ccccc23)SCC1c1ccc(Cl)cc1 (centres undefined) | > 100 µM | 28.7 | 41.1 µM | 19.6 µM | – | 61 µM | > 100 | > 100 µM | > 100 | > 100 | – | – | – | – | – | – | – | – | – |
| CCCCCCCCCCCCCCCC(=O)OCC(COP(=O)(O)OCCNC(=O)CCSSc1ccccn1)OC(=O)CCCCCCCCCCCCCCC (centres undefined) | > 100 µM | > 100 | > 100 µM | > 100 µM | – | > 100 µM | > 100 | > 100 µM | > 100 | > 100 | – | – | – | – | – | – | – | – | – |
| CCCCC(C)(C/C=C/[C@@H]1[C@@H](C(O)CCCCCC(=O)OC)C(=O)C[C@H]1O[Si](C)(C)C(C)(C)C)O[Si](C)(C)C (some centres undefined) | > 100 µM | > 100 | > 100 µM | > 100 µM | > 100 µM | > 100 µM | > 100 | > 100 µM | – | > 100 | – | – | – | – | – | – | – | – | – |
| COc1ccc(-c2cc(-c3ccc(Nc4ccnc5cc(C(F)(F)F)ccc45)cc3)nc(N)c2C#N)c2ccccc12 | > 100 µM | > 100 | – | > 100 µM | > 100 µM | > 100 µM | – | > 100 µM | > 100 | > 100 | – | – | – | – | – | – | – | – | – |
| COC1=C(C)C(=O)C2=C(C1=O)C1C3CC4=C(C(=O)C(OC)=C(C)C4=O)C(CNC(=O)C(C)=O)N3C(C#N)C(C2)N1C (centres undefined) | 1.16 µM and 1.23 µM | – | 0.199 µM and 0.0948 µM | 0.0313 µM and 0.0726 µM | 8.74e-05 µM and < 0.0251 µM and < 0.0105 µM | 0.0768 µM and 0.0776 µM | – | 0.195 µM and 0.0778 µM | 0.00608 | – | 0.00366 | – | – | – | 1.47e-05 | – | – | – | 0.000553 |
| O=C(Nc1nc2ccc([N+](=O)[O-])cc2s1)c1cc([N+](=O)[O-])ccc1Cl | 13.7 µM | 8.3 | – | 50.5 µM | 5.3 µM | 17 µM | 9.57 | – | > 100 | > 100 | – | – | – | – | – | – | – | – | – |
| COC(=O)C1=C(C)C(=O)C2(CCCCCC2C(=O)OC)C1 (centres undefined) | > 100 µM | > 100 | > 100 µM | > 100 µM | – | > 100 µM | > 100 | – | – | > 100 | – | – | – | – | – | – | – | – | – |
| COc1ccc(-c2cc(=O)c3cc(OC)c(OC)cc3[nH]2)cc1OC | > 100 µM | > 100 | > 100 µM | > 100 µM | > 100 µM | > 100 µM | > 100 | > 100 µM | – | > 100 | – | – | – | – | – | – | – | – | – |
| N#Cc1c(N)n(-c2nc3ccccc3s2)c(=O)c2cc([N+](=O)[O-])ccc12 | > 72.8 µM | 19.4 | – | > 51.3 µM | 19.7 µM | > 79 µM | 43.9 | > 52.1 µM | > 100 | > 100 | – | – | – | – | – | – | – | – | – |
| COC(=O)C1CCC(=S)N1C(C)=O (centres undefined) | > 100 µM | > 100 | > 100 µM | > 100 µM | – | > 100 µM | > 100 | > 100 µM | – | > 100 | – | – | – | – | – | – | – | – | – |
| CC1SCCc2nc3ccccc3n21 (centres undefined) | – | > 100 | > 100 µM | > 100 µM | > 100 µM | > 100 µM | > 100 | > 100 µM | > 100 | > 100 | – | – | – | – | – | – | – | – | – |
| Cc1cccc2c1Oc1ncccc1C2NC(=O)CN(C)C (centres undefined) | > 10 µM | > 10 | > 10 µM | > 10 µM | > 10 µM | > 10 µM | > 10 | > 10 µM | – | > 10 | – | – | – | – | – | – | – | – | – |
| CNc1nc(OC)c2c(n1)[n+](C)cn2C | > 100 µM | > 100 | > 100 µM | > 100 µM | > 100 µM | > 100 µM | > 100 | > 100 µM | > 100 | – | – | – | – | – | – | – | – | – | – |
| CC(=O)Oc1c(OC(C)C)cc(=O)n2ccsc12 | > 100 µM | > 100 | > 100 µM | > 100 µM | > 100 µM | > 100 µM | > 100 | > 100 µM | – | > 100 | – | – | – | – | – | – | – | – | – |
| CC(=O)Nc1ccc(C(=O)NN2C(=O)CSC2c2ccccc2)cc1 (centres undefined) | > 100 µM | > 100 | > 100 µM | > 100 µM | – | > 100 µM | > 100 | – | > 100 | > 100 | – | – | – | – | – | – | – | – | – |
| CC(C)=C[C@@H]1C[C@H](C)[C@H]2CC[C@H](C)[C@H]3C(=O)C(O)=C(C)C(=O)[C@]123 | > 100 µM | > 100 | > 100 µM | > 100 µM | > 100 µM | > 100 µM | > 100 | > 100 µM | – | > 100 | – | – | – | – | – | – | – | – | – |
